Here are results for 15 compounds from ChEMBL document CHEMBL1151128, “Halleridone, a cytotoxic constituent from Cornus controversa” (J Nat Prod, 1988).

A word on the IC50: it is the concentration needed to halve the response being measured. Lower therefore signals greater potency.

Assay [1] has as its system P388. The assay can be described thus: Cytotoxicity against mouse P388 cells. The assay is classed as functional, cell-based.
The nature of assay [2]: Cytotoxicity against human HeLaS3 cells. The settings on record: HeLa S3. The assay is classed as functional, cell-based.

Converted amounts (≈) assume the structure as drawn.

Turning to `OC1C=C[C@]2(O)CCO[C@@H]2C1` (stereo not given in full), the IC50 was 40.8 µg/mL (≈ 261 µM) in assay [1] and above 100 µg/mL in assay [2].

Consider `CCCC(=O)O[C@]12C=CC(=O)C[C@H]1OCC2`, for which the values for the IC50 in assay [1] and in assay [2] were 0.6 µg/mL (≈ 2.68 µM) and 2.7 µg/mL (≈ 12 µM), respectively.

Take `CCCCCC(=O)O[C@]12C=CC(=O)C[C@H]1OCC2`: the values for the IC50 in assay [1] and in assay [2] were 0.3 µg/mL (≈ 1.19 µM) and 1.8 µg/mL (≈ 7.13 µM), respectively.

Turning to `O=C1C=C[C@]2(OC(=O)c3ccccc3)CCO[C@@H]2C1`, the IC50 in assay [1] worked out at 0.5 µg/mL (≈ 1.94 µM); in assay [2], 1.6 µg/mL (≈ 6.19 µM).

With `O=C1CC[C@]2(O)CCO[C@@H]2C1`, the IC50 was 43 µg/mL (≈ 275 µM) in assay [1] and above 100 µg/mL in assay [2].

As to `CCCCCCCC(=O)O[C@]12C=CC(O)C[C@H]1OCC2` (stereo not given in full), the IC50 came to 8.4 µg/mL (≈ 29.7 µM) in assay [1] and 3.5 µg/mL (≈ 12.4 µM) in assay [2].

`CCCC(=O)O[C@]12C=CC(O)C[C@H]1OCC2` (stereo not given in full): the IC50 in assay [1] was above 100 µg/mL; in assay [2], 8.8 µg/mL (≈ 38.9 µM).

For the compound `CC(=O)O[C@]12C=CC(O)C[C@H]1OCC2` (stereo not given in full), the 50% inhibitory concentration (IC50) in assay [1] and in assay [2] was above 100 µg/mL each time.

`O=C1C=C[C@]2(OC(=O)c3ccc(Cl)cc3)CCO[C@@H]2C1`: the results for the IC50 in assay [1] and in assay [2] were 0.7 µg/mL (≈ 2.39 µM) and 0.9 µg/mL (≈ 3.07 µM), respectively.

As to `CCCCCC(=O)O[C@]12C=CC(O)C[C@H]1OCC2` (stereo not given in full), the IC50 in assay [1] stood at 38.5 µg/mL (≈ 151 µM); in assay [2], 5.3 µg/mL (≈ 20.8 µM).

`CCCCCCCC(=O)O[C@]12C=CC(=O)C[C@H]1OCC2`: the IC50 is 0.3 µg/mL (≈ 1.07 µM) in assay [1] and 0.8 µg/mL (≈ 2.85 µM) in assay [2].

On to `O=C1C=C[C@]2(OC(=O)c3ccccc3Cl)CCO[C@@H]2C1`, for which the IC50 in assay [1] amounted to 0.4 µg/mL (≈ 1.37 µM); in assay [2], 1 µg/mL (≈ 3.42 µM).

Turning to `O=C1C=C[C@]2(OC(=O)c3cccc(Cl)c3)CCO[C@@H]2C1`, the values for the IC50 in assay [1] and in assay [2] were below 0.1 µg/mL and 1.2 µg/mL (≈ 4.1 µM), respectively.

For the compound `CC(=O)O[C@]12C=CC(=O)C[C@H]1OCC2`, the IC50 in assay [1] was found to be 0.5 µg/mL (≈ 2.55 µM); in assay [2], 4.1 µg/mL (≈ 20.9 µM).

With `O=C1C=C[C@]2(O)CCO[C@@H]2C1` [HALLERIDONE], the IC50 came to 2.1 µg/mL (≈ 13.6 µM) in assay [1] and 2.8 µg/mL (≈ 18.2 µM) in assay [2].
